According to patent publication US5279939A, “Protein protease inhibitors from streptomyces” (SmithKline Beecham Corporation, priority 1992, dated 1994):

System: trypsin
Assay: chromogenic trypsin inhibition assay using KABI S2288 substrate
Assay type: biochemical
Settings: 25 ng trypsin, 410 nm
Protocol: Trypsin inhibitory activity was determined in a chromogenic assay using KABI S2288 as substrate (HO ILE PRO ARG p-nitroanilide.) Scisson of the ARG-p-nitroanilide bond releases p-nitroaniline which absorbs at 410 nm; thus, the extent of cleavage is measured by the increase in absorbance at 410 nm. This assay was used in qualitative manner to determine the inhibitory activity of LTI and LEP-10. Briefly, serial two fold dilutions of either conditioned medium (CM) or ammonium sulfate concentrates (AS) of conditioned medium were mixed with 25 ng of trypsin and the substrate was added. After 30 min at room temperature, the assay was stopped by addition of acetic acid. The assay was carried out in microtiter plates, which were then read in an ELISA reader. Similar samples of PSN were included as controls. […] The data shown are the absorbances measured following cleavage of the chromogenic substrate by trypsin.

**Q.** Which results are given for plasminostreptin [PSN]?
**A.** absorbance following cleavage of the chromogenic substrate by trypsin (ammonium sulfate concentrate (AS), reciprocal dilution 1, 30 min, No Inh. control 0.763 (LTI) / 0.751 (PSN)): 0.018; absorbance following cleavage of the chromogenic substrate by trypsin (ammonium sulfate concentrate (AS), reciprocal dilution 2, 30 min): 0.021; absorbance following cleavage of the chromogenic substrate by trypsin (ammonium sulfate concentrate (AS), reciprocal dilution 4, 30 min): 0.023; absorbance following cleavage of the chromogenic substrate by trypsin (ammonium sulfate concentrate (AS), reciprocal dilution 8, 30 min): 0.024; absorbance following cleavage of the chromogenic substrate by trypsin (ammonium sulfate concentrate (AS), reciprocal dilution 16, 30 min): 0.036; absorbance following cleavage of the chromogenic substrate by trypsin (ammonium sulfate concentrate (AS), reciprocal dilution 32, 30 min): 0.076; absorbance following cleavage of the chromogenic substrate by trypsin (conditioned medium (CM), reciprocal dilution 1, 30 min room temperature, No Inh. control 0.898 (LTI) / 0.772 (PSN)): 0.010; absorbance following cleavage of the chromogenic substrate by trypsin (conditioned medium (CM), reciprocal dilution 2, 30 min): 0.046; absorbance following cleavage of the chromogenic substrate by trypsin (conditioned medium (CM), reciprocal dilution 4, 30 min): 0.046; absorbance following cleavage of the chromogenic substrate by trypsin (conditioned medium (CM), reciprocal dilution 8, 30 min): 0.053; absorbance following cleavage of the chromogenic substrate by trypsin (conditioned medium (CM), reciprocal dilution 16, 30 min): 0.058; absorbance following cleavage of the chromogenic substrate by trypsin (conditioned medium (CM), reciprocal dilution 32, 30 min): 0.273
